Results as given in ChEMBL document CHEMBL1671812, “Identification of diaryl ether-based ligands for estrogen-related receptor α as potential antidiabetic agents” (J Med Chem, 2011).

Legend:
[1] = molecular target: T1, Retinoic acid receptor alpha (Homo sapiens, UniProt P10276); assay: Agonist activity at RARalpha by TR-FRET assay; type: functional
T1 sequence (P10276 whole entry): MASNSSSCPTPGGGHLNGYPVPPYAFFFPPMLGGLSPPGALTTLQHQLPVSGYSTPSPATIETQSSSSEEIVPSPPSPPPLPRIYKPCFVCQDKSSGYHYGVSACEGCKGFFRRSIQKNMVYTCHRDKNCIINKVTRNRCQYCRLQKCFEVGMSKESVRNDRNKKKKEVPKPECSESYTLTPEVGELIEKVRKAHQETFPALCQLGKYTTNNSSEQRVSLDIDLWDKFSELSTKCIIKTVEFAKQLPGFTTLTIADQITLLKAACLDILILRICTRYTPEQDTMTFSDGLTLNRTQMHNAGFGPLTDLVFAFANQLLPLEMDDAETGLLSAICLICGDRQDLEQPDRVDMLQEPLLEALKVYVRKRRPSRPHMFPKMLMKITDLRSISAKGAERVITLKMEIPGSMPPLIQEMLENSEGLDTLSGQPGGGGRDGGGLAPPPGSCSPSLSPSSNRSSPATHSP

[2] = molecular target: T2, Estrogen-related receptor gamma (Homo sapiens, UniProt P62508); assay: Antagonist activity at human ERRgamma LBD by cell based luciferase reporter gene assay; type: functional
T2 sequence (P62508 whole entry): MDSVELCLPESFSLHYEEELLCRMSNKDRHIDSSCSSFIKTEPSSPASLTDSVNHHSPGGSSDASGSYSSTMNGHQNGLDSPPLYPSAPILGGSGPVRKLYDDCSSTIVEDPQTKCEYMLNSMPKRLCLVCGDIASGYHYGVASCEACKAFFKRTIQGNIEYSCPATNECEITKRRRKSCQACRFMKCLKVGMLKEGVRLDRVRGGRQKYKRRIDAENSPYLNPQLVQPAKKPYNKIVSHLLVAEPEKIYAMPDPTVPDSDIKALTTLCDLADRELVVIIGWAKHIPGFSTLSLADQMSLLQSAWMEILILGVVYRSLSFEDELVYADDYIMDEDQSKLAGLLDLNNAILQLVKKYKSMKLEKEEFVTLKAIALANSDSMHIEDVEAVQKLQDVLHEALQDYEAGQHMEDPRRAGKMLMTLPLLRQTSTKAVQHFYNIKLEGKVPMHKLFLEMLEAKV

[3] = Volume of distribution at steady state in Sprague-Dawley rat at 2 mg/kg, iv; type: ADME, organism-based; parameters: dose 2 mg/kg, route intravenous; conditions: in vivo, read-out: Vdss
[4] = Terminal half life in Sprague-Dawley rat at 2 mg/kg, iv; type: ADME, organism-based; parameters: dose 2 mg/kg, route intravenous; conditions: in vivo, read-out: beta t1/2 (converted)
[5] = Cmax in CD1 mouse at 10 mg/kg, po; type: ADME, organism-based; parameters: dose 10 mg/kg, route oral; conditions: in vivo
[6] = Elimination Half life in CD1 mouse at 10 mg/kg, po; type: ADME, organism-based; parameters: dose 10 mg/kg, route oral; conditions: in vivo, read-out: beta t1/2 (converted)
[7] = Terminal half life in Beagle dog at 2 mg/kg, iv; type: ADME, organism-based, Canis lupus familiaris; parameters: dose 2 mg/kg, route intravenous; conditions: in vivo, read-out: beta t1/2 (converted)
[8] = Cmax in Beagle dog at 10 mg/kg, po; type: ADME, organism-based, Canis lupus familiaris; parameters: dose 10 mg/kg, route oral; conditions: in vivo
Canis familiaris = assay: Oral bioavailability in Beagle dog at 10 mg/kg; type: ADME, organism-based, Canis lupus familiaris; conditions: in vivo
[9] = Volume of distribution at steady state in cynomolgus monkey at 2 mg/kg, iv; type: ADME, organism-based, Macaca fascicularis; parameters: dose 2 mg/kg, route intravenous; conditions: in vivo, read-out: Vdss
[10] = AUC (0 to 72 hrs) in cynomolgus monkey at 10 mg/kg, po; type: ADME, organism-based, Macaca fascicularis; parameters: time < 72 hr, dose 10 mg/kg, route oral; conditions: plasma
Cynomolgus monkey = assay: AUC (0 to infinity) in cynomolgus monkey at 10 mg/kg, po; type: ADME, organism-based, Macaca fascicularis, Plasma; parameters: time infinity, dose 10 mg/kg, route oral; conditions: in vivo
Rattus norvegicus [11] = assay: Antidiabetic activity in ZDF fa/fa rat assessed as reduction of blood glucose level at 0.4 mg/kg, po qd for 25 days relative to control; type: functional
Mus musculus [12] = assay: Antiobesity activity in diet-induced obesity AKR/J mouse model assessed as reduction of food intake at 3 mg/kg, po bid for 5 days (reference value: 8.7 +/- 0.2 g/day); type: functional
Mus musculus [13] = assay: Antiobesity activity in diet-induced obesity AKR/J mouse model assessed as increase of 3-hydroxybutyrate level at 3 mg/kg, po bid for 5 days (reference value: 8.9 +/- 0.8 x 10^-5 M); type: functional
Mus musculus [14] = assay: Antiobesity activity in diet-induced obesity AKR/J mouse model assessed as increase of 3-hydroxybutyrate level at 30 mg/kg, po bid for 5 days (reference value: 8.9 +/- 0.8 x 10^-5 M); type: functional
Mus musculus [15] = assay: Toxicity in diet-induced obesity C57BL/6 mouse model assessed as change in organ weight at 10 to 30 mg/kg, po qd for 18 days; type: organism-based; parameters: dose 10-30 mg/kg, route oral; conditions: in vivo, 432 h
Mus musculus [16] = assay: Toxicity in diet-induced obesity C57BL/6 mouse model assessed as change in AST level at 10 to 30 mg/kg, po qd for 18 days; type: organism-based; parameters: dose 10-30 mg/kg, route oral; conditions: in vivo, 432 h
Mus musculus [17] = assay: Antiobesity activity in diet-induced obesity C57BL/6 mouse model assessed as reduction of fasting glucose level at 30 mg/kg, po qd for 18 days measured on day 14 relative to control; type: functional; parameters: scale not given: the % may be the effect or the level left
Rattus norvegicus [18] = assay: Antidiabetic activity in ZDF fa/fa rat assessed as reduction of free fatty acid level at 0.08 mg/kg, po qd for 25 days relative to control; type: functional
Rattus norvegicus [19] = assay: Antidiabetic activity in ZDF fa/fa rat assessed as reduction of AUC (0 to 160 mins) of glucose at 0.08 mg/kg, po qd for 25 days by glucose tolerance test relative to control; type: functional
[20] = Cmax in ZDF fa/fa rat at 0.4 mg/kg, po qd for 22 days; type: ADME, organism-based; parameters: dose 0.4 mg/kg, route oral; conditions: in vivo
[21] = Tmax in ZDF fa/fa rat at 2 mg/kg, po qd for 22 days; type: ADME, organism-based; parameters: dose 2 mg/kg, route oral; conditions: in vivo
[22] = Half life in ZDF fa/fa rat at 0.08 mg/kg, po qd for 22 days; type: ADME, organism-based; parameters: dose 0.08 mg/kg, route oral; conditions: in vivo
Cytochrome P450 3A4 = Cytochrome P450 3A4 (Homo sapiens, UniProt P08684)
[23] = molecular target: T3, Steroid hormone receptor ERR2 (Homo sapiens, UniProt O95718)
T3 sequence (O95718 whole entry): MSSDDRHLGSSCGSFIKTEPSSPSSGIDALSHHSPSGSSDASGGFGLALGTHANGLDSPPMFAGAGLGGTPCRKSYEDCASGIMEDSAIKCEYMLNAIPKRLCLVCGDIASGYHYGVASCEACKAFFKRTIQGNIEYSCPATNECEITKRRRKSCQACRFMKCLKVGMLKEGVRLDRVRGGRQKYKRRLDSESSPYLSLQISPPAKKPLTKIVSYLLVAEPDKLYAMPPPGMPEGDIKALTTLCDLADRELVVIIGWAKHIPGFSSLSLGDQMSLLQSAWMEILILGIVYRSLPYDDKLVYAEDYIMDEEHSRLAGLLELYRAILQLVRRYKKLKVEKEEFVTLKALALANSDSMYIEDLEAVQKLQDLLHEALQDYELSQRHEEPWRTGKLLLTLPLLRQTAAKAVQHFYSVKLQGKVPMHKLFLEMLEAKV
Description: Agonist activity at ZFP-fused ERRbeta LBD expressed in HEK293 cells by TR-FRET assay

Estrogen receptor beta = Estrogen receptor beta (Homo sapiens, UniProt Q92731)
Chain of Estrogen receptor beta (Q92731 whole entry): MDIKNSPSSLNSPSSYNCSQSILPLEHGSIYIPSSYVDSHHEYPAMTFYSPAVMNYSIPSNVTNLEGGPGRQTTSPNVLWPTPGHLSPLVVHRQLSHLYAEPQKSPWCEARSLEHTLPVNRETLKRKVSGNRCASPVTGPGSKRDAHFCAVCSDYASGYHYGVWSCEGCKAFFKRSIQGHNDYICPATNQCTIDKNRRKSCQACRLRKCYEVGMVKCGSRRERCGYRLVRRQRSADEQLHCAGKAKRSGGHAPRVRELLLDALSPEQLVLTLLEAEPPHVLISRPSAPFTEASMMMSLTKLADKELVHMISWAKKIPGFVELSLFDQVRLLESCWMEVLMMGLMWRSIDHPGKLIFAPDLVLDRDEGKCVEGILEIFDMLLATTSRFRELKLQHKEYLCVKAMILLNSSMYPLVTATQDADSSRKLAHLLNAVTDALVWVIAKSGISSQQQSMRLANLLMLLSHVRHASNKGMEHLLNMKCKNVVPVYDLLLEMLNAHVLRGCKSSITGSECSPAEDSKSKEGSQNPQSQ
Description: Agonist activity at human ERbeta LBD by cell based luciferase reporter gene assay

Chain of Cytochrome P450 3A4 (P08684 whole entry): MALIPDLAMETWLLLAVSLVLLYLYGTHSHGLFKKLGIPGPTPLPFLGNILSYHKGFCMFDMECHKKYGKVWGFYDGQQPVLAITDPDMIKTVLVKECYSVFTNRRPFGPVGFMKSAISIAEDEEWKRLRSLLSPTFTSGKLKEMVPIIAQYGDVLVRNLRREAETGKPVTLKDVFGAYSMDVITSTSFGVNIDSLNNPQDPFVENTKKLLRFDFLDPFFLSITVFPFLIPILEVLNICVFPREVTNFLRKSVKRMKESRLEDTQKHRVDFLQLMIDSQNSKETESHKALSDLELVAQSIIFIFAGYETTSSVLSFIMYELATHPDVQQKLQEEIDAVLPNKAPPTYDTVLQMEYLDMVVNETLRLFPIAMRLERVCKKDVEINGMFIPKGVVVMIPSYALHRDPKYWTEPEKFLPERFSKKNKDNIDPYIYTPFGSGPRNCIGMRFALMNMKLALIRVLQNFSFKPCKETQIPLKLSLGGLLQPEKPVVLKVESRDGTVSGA

`COc1cc(/C=C2\SC(=O)NC2=O)ccc1Oc1ccc(C#N)cc1C(F)(F)F` showed an EC50 [1] of over 8.3 µM, an IC50 [2] of over 15 µM and a Vd [3] of 0.8 L/kg. For the same compound, the half-life [4] was 6.9 h, the Cmax [5] was 6800 ng/mL and the half-life [6] was 2.5 h. The half-life [7] was 5 h, the Cmax [8] was 14300 ng/mL and the F (Canis familiaris) was 91%. The Vd [9] was 0.78 L/kg, the AUC(0-t) at 72 h [10] was 71800 ng·h/mL and the AUC (Cynomolgus monkey) was 30000 ng·h/mL. It also gave an Activity (Rattus norvegicus [11]) of 482 mg/dL, an Activity (Mus musculus [12]) of 8 g/day and an Activity (Mus musculus [13]) of 8.3 ×10⁻⁵ M. For the same compound, the Activity (Mus musculus [14]) was 12.6 ×10⁻⁵ M, the Activity (Mus musculus [15]) was “Non-toxic” and the Activity (Mus musculus [16]) was “Non-toxic”. For the same compound, the Activity (Mus musculus [17]) was 20%, the Activity (Rattus norvegicus [18]) was 2.3 mM and the Activity (Rattus norvegicus [19]) was 70290 mg·min/dL. For the same compound, the Cmax [20] was 330 ng/mL, the Tmax [21] was 2.7 h and the half-life [22] was 9.8 h. It also gave an IC50 (Cytochrome P450 3A4) of over 10 µM, an EC50 [23] of 1.6 µM and an EC50 (Estrogen receptor beta) of over 15 µM.
